Activity calls are given as the source filed them.
Key:
Tumor necrosis factor = Tumor necrosis factor (Homo sapiens, UniProt P01375); assay: TNFa-triggered NF-kB activation inhibitors, SAR follow-up, cell-based, revised (AID 2337); assay type: functional
Interleukin-8 = Interleukin-8 (Homo sapiens, UniProt P10145); assay: SAR analysis of tumor necrosis factor alpha (TNF-alpha) induced IL-8 secretion in MCF-7/NOD1 cells. [Related pubchem assays (depositor defined):AID1575, AID2250, AID2260]; assay type: functional, cell-based
HEK293 = assay: cells; conditions: Homo sapiens;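 also: cells exposed to compound for 14 hours overnight before viability readout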
[1] = target: DNA dC->dU-editing enzyme APOBEC-3G (Homo sapiens, UniProt Q9HC16); assay: Dose Response confirmation of small molecule APOBEC3G DNA Deaminase Inhibitors via a fluorescence-based single-stranded DNA deaminase assay. [Related pubchem assays (depositor defined):AID493012, AID493028]; assay type: functional
[2] = target: DNA dC->dU-editing enzyme APOBEC-3A (Homo sapiens, UniProt P31941); assay: APOBEC3A DNA deaminase inhibitors, dose response, biochemical (AID 504722); assay type: functional
[3] = RKO cell viability reduction, dose response, CellTiter-Glo luminescence (AID 1117322); assay type: functional
[4] = SNU-C1 cell viability reduction, dose response, CellTiter-Glo luminescence (AID 1117323); assay type: functional, cell-based
[5] = cytotoxicity toward Colo320 cells – cell-based, CellTiter-Glo luminescence, IC50, dose response (AID 1117334); assay type: functional; conditions: COLO 320
Estrogen receptor beta [6] = target: T1, Estrogen receptor beta (Homo sapiens, UniProt Q92731);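 also: recombinant ER-beta bound to coactivator SRC1 peptide in presence of estradiol agonist; inhibitors block coactivator peptide binding and lower the FRET signal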
[7] = Concentration-dependent survival of SW480 colon cancer line, luminescence detection with CellTiter-Glo, half-maximal inhibitory concentration (AID 1117338); assay type: functional
Large T antigen = Large T antigen (Simian virus 40, UniProt P03070); assay: A confirmatory biochemical assay using the ADP-Hunter methodology, purified TAg, and ATP to quantify activity of synthesized compounds that inhibit the ATPase activity of Tag (3). [Related pubchem assays (depositor defined):AID1903, AID1909, AID2102, AID2501, AID2615, AID2775, AID435001, AID449729]; design: species or system Betapolyomavirus macacae
[8] = cytotoxicity in KRAS-transformed pancreatic duct cells, primary screen, cell-based, fluorescence, HTS (AID 431); assay type: functional; conditions: Homo sapiens;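 also: cell line used: HPDE-C7K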
[9] = target: Induced myeloid leukemia cell differentiation protein Mcl-1 (Homo sapiens, UniProt Q07820); assay type: functional
[10] = HeLa 4N DNA content increase, dose response, cell-based, IC50 (AID 1117351); assay type: functional
[11] = cytotoxicity toward HT-29 cells – cell-based, CellTiter-Glo luminescence, IC50, dose response (AID 1117330); assay type: functional
[12] = CellTiter-Glo luminescent dose response of DLD-1 viability loss (AID 1117352); assay type: functional
[13] = cytotoxicity toward HCT116 cells – cell-based, CellTiter-Glo luminescence, IC50, dose response (AID 1117332); assay type: functional; conditions: HCT-116
Estrogen receptor beta [14] = target: T1, Estrogen receptor beta; assay: ERβ–SRC-3 coactivator interaction inhibitors, confirmation, orthogonal assay, biochemical, ELISA, streptavidin-HRP readout (AID 1060)
[15] = Glucagon-like peptide 1 release potency, NCI-H716 cell line, dose-response, half-maximal inhibitory concentration (AID 1117344); assay type: functional, cell-based
[16] = HCT116 cell viability decrease, GSK3B pretreatment – CellTiter-Glo, IC50, dose response (AID 1117339); assay type: functional; conditions: HCT-116
[17] = target: Envelope glycoprotein gp160 (Human immunodeficiency virus 1, UniProt Q6QLK5); assay: inhibitors of HIV fusion peptide binding, primary screen, biochemical, uHTS, fluorescence dequenching (AID 1986)
[18] = half-maximal inhibitory concentration for glucagon-like peptide-1 release, STC-1 cell line, dose-response (AID 1117345); assay type: functional, cell-based
[19] = HeLa 2N DNA content increase, dose response, cell-based, IC50 (AID 1117349); assay type: functional
[20] = cytotoxicity in HPDE-C7 cells, cell-based, fluorescence, HTS (AID 430); assay type: functional; conditions: Homo sapiens
[21] = target: T2, Calpain-2 catalytic subunit (Sus scrofa, UniProt P43367); assay: pig calpain II inhibitor potency, dose response, biochemical, fluorogenic peptide substrate (AID 1420); assay type: functional
T2 sequence (P43367 whole entry): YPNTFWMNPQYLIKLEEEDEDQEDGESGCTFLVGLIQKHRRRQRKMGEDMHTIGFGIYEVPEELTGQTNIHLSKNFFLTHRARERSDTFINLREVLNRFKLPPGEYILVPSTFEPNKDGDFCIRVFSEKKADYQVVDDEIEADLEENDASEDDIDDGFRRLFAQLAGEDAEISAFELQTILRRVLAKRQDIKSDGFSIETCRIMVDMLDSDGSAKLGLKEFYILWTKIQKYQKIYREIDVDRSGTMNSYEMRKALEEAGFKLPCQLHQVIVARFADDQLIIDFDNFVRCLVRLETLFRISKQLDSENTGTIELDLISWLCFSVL

Aminopeptidase N = target: T3, Aminopeptidase N (Plasmodium falciparum FcB1/Columbia, UniProt O96935); assay: P. falciparum M1AAP inhibitors, biochemical, fluorogenic H-Leu-NHMec substrate, 1536-well (AID 1445); design: species or system Plasmodium falciparum 3D7, 3D7
T3 sequence (O96935 whole entry): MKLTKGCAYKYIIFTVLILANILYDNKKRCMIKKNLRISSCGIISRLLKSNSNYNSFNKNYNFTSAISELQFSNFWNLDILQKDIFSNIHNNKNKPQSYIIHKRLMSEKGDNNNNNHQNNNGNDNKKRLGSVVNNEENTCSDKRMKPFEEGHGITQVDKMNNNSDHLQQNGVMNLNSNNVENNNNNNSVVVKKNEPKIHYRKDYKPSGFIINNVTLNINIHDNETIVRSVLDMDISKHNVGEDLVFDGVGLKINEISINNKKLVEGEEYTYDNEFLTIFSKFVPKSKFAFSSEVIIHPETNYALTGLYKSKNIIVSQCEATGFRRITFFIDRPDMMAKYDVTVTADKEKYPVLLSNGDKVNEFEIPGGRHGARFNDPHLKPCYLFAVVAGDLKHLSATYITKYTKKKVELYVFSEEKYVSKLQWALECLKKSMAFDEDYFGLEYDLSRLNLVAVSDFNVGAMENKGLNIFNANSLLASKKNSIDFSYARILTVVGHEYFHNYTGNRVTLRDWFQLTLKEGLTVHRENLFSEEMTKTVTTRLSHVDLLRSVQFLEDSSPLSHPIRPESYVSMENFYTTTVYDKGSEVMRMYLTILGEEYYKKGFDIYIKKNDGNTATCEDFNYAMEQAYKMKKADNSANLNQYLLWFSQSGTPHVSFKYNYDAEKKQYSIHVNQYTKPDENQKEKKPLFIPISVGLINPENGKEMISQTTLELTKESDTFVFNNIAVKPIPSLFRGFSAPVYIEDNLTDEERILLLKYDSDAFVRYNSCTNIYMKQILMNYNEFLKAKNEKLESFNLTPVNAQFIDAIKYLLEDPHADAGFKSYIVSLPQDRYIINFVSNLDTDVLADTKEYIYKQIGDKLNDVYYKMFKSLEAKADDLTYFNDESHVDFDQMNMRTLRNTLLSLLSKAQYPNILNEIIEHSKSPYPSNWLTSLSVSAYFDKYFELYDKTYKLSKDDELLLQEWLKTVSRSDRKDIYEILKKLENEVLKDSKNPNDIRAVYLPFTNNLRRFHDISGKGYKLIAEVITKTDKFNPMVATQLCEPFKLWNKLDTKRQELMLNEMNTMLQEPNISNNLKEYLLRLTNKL

[22] = target: Female germline-specific tumor suppressor gld-1 (Caenorhabditis elegans, UniProt Q17339); assay: inhibitors of GLD-1 binding to TGE RNA, dose response, biochemical, fluorescence polarization, C. elegans (AID 2802);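 also: fluorescence polarization of labeled TGE RNA bound by purified gld-1 protein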
Protein Rev = Protein Rev (Human immunodeficiency virus type 1 group M subtype B (isolate HXB2)(HIV-1), UniProt P04618); assay: inhibitors of Rev binding to RRE RNA, dose response, biochemical, fluorescence polarization, HIV-1 (AID 434976); design: species or system Human immunodeficiency virus 1
[23] = target: T4, Intestinal-type alkaline phosphatase (Homo sapiens, UniProt P09923); assay: human IAP activators, dose response, biochemical, luminescent, uHTS hits, set 2 (AID 488817); assay type: functional;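 also: potency of activators that raise enzyme activity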
[24] = target: T5, Zinc finger protein mex-5 (Caenorhabditis elegans, UniProt Q9XUB2); assay: MEX-5/TCR-2 RNA interaction inhibitors, dose response, biochemical, C. elegans, fluorescence polarization (AID 1960)
T5 sequence (Q9XUB2 whole entry): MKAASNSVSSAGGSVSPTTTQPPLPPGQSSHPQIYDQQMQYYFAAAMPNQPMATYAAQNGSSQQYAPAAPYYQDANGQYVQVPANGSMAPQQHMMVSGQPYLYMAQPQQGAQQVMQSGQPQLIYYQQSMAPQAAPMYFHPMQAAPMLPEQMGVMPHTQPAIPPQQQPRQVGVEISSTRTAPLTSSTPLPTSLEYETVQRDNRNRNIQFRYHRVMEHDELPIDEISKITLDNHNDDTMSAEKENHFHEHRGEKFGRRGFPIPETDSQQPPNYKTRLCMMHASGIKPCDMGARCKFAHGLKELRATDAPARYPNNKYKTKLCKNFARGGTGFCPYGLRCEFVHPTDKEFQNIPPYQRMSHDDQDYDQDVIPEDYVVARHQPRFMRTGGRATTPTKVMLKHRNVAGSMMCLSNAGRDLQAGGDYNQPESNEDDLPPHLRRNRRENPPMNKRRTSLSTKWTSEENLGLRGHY

[25] = target: T6, RNA-binding protein pos-1 (Caenorhabditis elegans, UniProt G5EF15); assay: inhibitors of POS-1/mex-3 RNA binding, dose response, biochemical, fluorescence polarization (AID 1964);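 also: purified POS-1 fused to maltose binding protein made in E. coli; potency of compounds blocking POS-1 binding to fluorescent RNA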
T6 sequence (G5EF15 whole entry): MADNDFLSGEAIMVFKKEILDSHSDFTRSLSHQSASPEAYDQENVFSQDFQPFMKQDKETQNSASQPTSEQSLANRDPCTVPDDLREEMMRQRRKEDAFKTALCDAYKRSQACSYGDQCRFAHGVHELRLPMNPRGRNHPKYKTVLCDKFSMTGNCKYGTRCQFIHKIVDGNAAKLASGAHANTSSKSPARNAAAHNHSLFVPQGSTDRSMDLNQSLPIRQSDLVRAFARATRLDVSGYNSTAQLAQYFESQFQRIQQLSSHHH

[26] = target: T7, Intestinal-type alkaline phosphatase (Mus musculus, UniProt P24822); assay: PubChem AID 488875; assay type: functional
[27] = target: T8, Alkaline phosphatase, tissue-nonspecific isozyme (Homo sapiens, UniProt P05186); assay: TNAP enzyme activators, dose response, selectivity assay for human IAP activator project, biochemical, TNAP isozyme, human IAP uHTS hits (AID 488886); assay type: functional;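 also: potency of compounds raising TNAP activity as a selectivity check on IAP activators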
T8 sequence (P05186 whole entry): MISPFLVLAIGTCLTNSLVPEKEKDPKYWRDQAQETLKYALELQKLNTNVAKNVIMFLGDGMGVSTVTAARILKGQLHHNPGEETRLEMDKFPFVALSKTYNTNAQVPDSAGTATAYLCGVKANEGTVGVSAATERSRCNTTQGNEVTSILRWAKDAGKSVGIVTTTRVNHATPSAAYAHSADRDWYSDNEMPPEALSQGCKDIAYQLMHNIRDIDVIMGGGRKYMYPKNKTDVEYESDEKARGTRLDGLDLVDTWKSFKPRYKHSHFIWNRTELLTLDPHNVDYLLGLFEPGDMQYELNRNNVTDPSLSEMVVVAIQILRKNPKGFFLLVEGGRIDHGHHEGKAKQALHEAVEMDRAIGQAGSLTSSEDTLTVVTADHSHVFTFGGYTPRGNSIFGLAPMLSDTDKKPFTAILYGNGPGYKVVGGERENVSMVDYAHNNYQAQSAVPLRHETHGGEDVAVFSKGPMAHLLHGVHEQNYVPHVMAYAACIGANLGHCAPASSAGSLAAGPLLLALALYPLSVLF

[28] = target: T4, Intestinal-type alkaline phosphatase; assay: human intestinal alkaline phosphatase activators, dose response, biochemical, luminescence, uHTS hits (AID 463120); assay type: functional
[29] = target: T7, Intestinal-type alkaline phosphatase; assay: PubChem AID 488874; assay type: functional

T4 sequence (P09923 whole entry): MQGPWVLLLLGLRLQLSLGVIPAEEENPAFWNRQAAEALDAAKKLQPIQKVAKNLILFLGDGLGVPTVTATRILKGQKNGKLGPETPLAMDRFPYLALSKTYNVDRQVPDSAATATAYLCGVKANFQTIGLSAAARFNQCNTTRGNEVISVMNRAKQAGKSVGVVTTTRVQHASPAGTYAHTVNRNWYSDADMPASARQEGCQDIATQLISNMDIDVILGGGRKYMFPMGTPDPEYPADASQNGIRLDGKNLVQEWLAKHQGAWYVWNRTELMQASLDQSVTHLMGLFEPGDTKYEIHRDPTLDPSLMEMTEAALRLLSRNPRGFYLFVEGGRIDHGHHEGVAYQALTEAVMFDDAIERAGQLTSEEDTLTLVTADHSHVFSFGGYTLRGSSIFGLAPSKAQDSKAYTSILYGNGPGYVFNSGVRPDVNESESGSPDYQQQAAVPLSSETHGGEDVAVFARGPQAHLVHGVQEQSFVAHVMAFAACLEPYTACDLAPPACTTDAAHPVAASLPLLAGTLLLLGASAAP
T1 sequence (Q92731 whole entry): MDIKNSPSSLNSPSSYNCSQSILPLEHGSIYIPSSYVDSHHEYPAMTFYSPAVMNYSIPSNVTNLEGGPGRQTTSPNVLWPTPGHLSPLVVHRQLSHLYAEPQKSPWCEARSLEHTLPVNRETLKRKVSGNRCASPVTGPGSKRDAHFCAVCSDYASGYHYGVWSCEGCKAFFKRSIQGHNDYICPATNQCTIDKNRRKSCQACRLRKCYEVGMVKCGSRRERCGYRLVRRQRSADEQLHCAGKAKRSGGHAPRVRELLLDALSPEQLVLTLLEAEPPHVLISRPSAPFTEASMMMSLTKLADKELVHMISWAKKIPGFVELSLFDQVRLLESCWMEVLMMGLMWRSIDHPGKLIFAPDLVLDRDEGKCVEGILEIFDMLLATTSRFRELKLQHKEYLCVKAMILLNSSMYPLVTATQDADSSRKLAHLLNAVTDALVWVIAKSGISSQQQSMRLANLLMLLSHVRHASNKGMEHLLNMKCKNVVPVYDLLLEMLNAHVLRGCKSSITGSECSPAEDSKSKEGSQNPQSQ
T7 sequence (P24822 whole entry): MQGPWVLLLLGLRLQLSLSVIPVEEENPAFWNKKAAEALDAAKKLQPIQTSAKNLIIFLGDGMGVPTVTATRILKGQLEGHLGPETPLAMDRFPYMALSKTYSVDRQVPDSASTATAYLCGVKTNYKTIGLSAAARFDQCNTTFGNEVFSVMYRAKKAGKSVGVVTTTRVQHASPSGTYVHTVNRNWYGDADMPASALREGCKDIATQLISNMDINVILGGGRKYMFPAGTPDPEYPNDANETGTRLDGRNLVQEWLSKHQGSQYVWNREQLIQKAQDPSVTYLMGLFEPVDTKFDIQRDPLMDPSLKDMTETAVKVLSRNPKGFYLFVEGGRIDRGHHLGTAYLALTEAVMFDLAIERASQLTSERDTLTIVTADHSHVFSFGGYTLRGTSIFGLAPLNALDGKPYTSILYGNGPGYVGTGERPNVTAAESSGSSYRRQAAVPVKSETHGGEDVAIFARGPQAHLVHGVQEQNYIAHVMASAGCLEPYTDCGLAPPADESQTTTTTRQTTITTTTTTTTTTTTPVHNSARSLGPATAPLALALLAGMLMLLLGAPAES
Sequence of Interleukin-8 (P10145 whole entry): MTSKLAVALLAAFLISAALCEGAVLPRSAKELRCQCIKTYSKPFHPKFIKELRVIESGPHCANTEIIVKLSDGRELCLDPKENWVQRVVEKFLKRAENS
Sequence of Envelope glycoprotein gp160 (Q6QLK5 whole entry, the tested form may be a part): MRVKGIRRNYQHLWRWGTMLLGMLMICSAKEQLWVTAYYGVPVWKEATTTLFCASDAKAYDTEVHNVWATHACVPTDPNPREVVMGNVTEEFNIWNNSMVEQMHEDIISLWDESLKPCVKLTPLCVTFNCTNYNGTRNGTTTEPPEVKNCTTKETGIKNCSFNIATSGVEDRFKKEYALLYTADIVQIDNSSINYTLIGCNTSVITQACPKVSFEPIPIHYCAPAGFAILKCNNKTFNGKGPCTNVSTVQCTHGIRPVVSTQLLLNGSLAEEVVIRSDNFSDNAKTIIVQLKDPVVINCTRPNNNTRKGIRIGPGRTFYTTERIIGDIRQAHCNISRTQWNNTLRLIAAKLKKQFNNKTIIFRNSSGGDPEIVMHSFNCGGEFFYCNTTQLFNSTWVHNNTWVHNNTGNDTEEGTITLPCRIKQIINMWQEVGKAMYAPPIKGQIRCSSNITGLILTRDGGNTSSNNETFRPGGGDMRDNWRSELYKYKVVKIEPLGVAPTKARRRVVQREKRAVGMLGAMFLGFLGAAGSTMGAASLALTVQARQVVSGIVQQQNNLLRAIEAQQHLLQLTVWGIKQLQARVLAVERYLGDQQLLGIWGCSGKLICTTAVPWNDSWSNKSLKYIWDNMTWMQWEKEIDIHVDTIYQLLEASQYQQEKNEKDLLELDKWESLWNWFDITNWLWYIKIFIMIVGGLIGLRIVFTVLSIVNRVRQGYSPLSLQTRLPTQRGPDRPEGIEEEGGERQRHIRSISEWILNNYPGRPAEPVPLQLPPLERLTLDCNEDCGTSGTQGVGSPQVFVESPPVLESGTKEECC
Sequence of Large T antigen (P03070 whole entry): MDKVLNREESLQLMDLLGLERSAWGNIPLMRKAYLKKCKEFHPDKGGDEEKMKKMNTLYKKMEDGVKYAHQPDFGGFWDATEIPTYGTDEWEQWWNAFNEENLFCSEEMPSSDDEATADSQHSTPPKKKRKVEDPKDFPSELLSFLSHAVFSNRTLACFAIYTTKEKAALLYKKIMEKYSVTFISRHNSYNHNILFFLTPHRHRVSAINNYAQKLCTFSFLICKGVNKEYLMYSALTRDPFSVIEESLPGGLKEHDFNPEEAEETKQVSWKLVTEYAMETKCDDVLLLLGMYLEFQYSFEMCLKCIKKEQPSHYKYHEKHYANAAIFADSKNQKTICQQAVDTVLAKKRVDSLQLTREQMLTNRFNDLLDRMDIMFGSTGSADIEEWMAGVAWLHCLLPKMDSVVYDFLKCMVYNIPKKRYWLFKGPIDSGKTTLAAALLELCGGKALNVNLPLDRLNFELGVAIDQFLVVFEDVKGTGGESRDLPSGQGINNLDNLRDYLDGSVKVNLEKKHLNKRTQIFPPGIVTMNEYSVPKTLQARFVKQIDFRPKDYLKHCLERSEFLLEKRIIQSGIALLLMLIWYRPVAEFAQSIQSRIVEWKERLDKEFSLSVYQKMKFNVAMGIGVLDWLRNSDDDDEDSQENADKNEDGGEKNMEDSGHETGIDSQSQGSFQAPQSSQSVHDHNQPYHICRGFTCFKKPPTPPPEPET
Sequence of DNA dC->dU-editing enzyme APOBEC-3G (Q9HC16 whole entry): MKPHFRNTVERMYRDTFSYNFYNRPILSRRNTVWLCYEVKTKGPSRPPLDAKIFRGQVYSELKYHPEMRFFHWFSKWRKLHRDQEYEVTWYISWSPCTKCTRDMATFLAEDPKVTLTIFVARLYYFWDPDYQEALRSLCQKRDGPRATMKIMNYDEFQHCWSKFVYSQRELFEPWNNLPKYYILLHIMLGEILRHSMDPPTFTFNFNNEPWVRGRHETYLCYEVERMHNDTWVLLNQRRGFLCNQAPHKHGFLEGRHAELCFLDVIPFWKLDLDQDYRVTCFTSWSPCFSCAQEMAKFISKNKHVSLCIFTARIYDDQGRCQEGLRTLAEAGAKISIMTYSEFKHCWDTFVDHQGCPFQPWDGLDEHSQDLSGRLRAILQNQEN
Sequence of Female germline-specific tumor suppressor gld-1 (Q17339 whole entry): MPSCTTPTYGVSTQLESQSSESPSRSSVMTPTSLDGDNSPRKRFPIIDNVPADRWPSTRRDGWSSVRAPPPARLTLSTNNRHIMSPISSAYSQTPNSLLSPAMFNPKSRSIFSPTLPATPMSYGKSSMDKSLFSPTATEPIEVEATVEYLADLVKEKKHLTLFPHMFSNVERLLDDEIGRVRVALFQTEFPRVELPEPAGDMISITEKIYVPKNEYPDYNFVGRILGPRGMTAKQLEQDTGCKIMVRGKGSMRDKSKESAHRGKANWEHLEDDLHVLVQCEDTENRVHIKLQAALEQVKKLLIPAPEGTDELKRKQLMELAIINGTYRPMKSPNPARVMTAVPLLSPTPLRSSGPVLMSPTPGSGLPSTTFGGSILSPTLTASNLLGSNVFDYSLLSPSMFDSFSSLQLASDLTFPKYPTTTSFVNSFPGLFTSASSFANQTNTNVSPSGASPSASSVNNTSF
Sequence of DNA dC->dU-editing enzyme APOBEC-3A (P31941 whole entry): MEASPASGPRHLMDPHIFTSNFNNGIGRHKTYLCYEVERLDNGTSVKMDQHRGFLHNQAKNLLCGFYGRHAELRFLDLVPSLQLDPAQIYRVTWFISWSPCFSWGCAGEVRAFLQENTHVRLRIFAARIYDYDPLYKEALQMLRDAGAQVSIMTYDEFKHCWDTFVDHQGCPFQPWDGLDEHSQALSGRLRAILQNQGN
Sequence of Tumor necrosis factor (P01375 whole entry): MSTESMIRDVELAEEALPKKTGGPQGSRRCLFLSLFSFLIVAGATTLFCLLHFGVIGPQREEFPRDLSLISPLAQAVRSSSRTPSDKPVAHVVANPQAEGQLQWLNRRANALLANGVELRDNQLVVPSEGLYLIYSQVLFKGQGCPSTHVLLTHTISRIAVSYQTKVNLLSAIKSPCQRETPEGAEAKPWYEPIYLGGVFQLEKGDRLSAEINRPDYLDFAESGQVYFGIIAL
Sequence of Induced myeloid leukemia cell differentiation protein Mcl-1 (Q07820 whole entry): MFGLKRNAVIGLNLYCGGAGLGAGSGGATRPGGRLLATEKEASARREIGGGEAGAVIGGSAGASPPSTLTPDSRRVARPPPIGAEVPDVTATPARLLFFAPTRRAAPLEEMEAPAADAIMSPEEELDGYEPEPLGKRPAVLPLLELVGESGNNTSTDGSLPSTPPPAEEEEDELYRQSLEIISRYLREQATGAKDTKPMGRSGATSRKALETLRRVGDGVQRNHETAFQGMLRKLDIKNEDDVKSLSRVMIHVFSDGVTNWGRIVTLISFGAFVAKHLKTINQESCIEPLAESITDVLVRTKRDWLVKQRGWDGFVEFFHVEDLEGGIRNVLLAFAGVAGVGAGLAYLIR

Cc1ccc(S(=O)(=O)n2cnc3ccccc32)cc1
inactive: IC50 (Tumor necrosis factor) > 20 µM | IC50 (Interleukin-8) > 5 µM | IC50 (HEK293) > 20 µM

Cc1ccc(-c2nnc(S)n2/N=C\c2ccco2)cc1
inactive: IC50 [2] > 100 µM
active: IC50 [1] 2.86 µM

Oc1c(Cl)cc(Cl)cc1Sc1cc(Cl)cc(Cl)c1O [BITHIONOL]
> 109 µM (not active): IC50 (Estrogen receptor beta [14])
4.75 µM (not active): IC50 [21]
active: IC50 [3] 0.001 µM | IC50 [4] 0.00867 µM | IC50 [5] 0.015 µM | IC50 (Estrogen receptor beta [6]) 8.15 µM | IC50 [7] 0.001 µM | IC50 (Large T antigen) 35.7 µM | EC50 [8] 1.34 µM | IC50 [9] 1.9 µM | IC50 [11] 0.996 µM | IC50 [12] 0.001 µM | IC50 [13] 0.001 µM | IC50 [16] 0.001 µM | IC50 [17] 6.16 µM | EC50 [20] 1.21 µM | IC50 (Aminopeptidase N) 42.9 µM
inactive: IC50 [10] > 10 µM | IC50 [15] 19.4 µM | IC50 [18] > 20 µM | IC50 [19] > 10 µM

CC1CN(C2=Nc3cccc4cccc2c34)CC(C)O1 (stereo not given)
active: IC50 [22] 9.4 µM
18.2 µM (not active): IC50 (Protein Rev)

O=C(NNC(=S)NC(=O)c1ccccc1[N+](=O)[O-])c1ccccc1O
active: EC50 [23] 9.62 µM | EC50 [24] 32.2 µM | EC50 [25] 134 µM | EC50 [27] 11.2 µM | EC50 [28] 9.16 µM
inactive: EC50 [26] > 100 µM | IC50 [29] > 100 µM

Reference: ChEMBL document CHEMBL1201862, “PubChem BioAssay data set” (2004)
